Biological target: T1, L. helveticus PDT (Lactobacillus helveticus, UniProt Q8RLY5)
T1 construct: gene ptd; recombinant in E. coli BL21(DE3)pLysS from pETLH4; ammonium sulfate and Sephacryl S-200, no tag mentioned; C-terminal residue Tyr167; active site shared with adjacent monomer; 3 monomers per ASU
Assay: X-ray crystallography, […] Å, soaked crystals
Assay type: binding
Settings: soak up to 6 mM; active site, four overlapping orientations; also deoxyribosylated at N1 and N7 with dGuo donor

T1 sequence (Q8RLY5 entry or part of it): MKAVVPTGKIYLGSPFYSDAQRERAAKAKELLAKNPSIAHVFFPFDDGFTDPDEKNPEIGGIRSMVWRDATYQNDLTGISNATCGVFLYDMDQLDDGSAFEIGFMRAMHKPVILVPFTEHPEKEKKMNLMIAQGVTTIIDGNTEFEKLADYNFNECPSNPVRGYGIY

SMILES: O=c1[nH]c2nccn2c2nc[nH]c12 [compound 1, 8,9-dihydro-9-oxoimidazo[2,1-b]purine]
- X-ray crystallography, 2.1 Å, soaked crystals: the substrate binds in at least four different, overlapping orientations
